In patent publication US6630498B2 (SmithKline Beecham Corporation, priority 1997, dated 2003):

How the values were obtained:
[1] = cited from earlier work
[2] = Mucosal to serosal permeability through rabbit colon in vitro; type: in vitro ADME
[3] = Flow through dissolution of granules with pH gradient; type: physicochemical; settings: for in vitro dissolution profile (in words): compared to the monomethanesulfonate salt (granules); for Percent of Eprosartan dissolved from the granules: flow through 8 mL/min, 37° C.
Procedure: A flow through dissolution apparatus at 8 mL/min flow rate, 37° C. and the following pH gradient

increase of mucosal to serosal permeability through rabbit colon ([2]; in the presence of L-arginine as a solution, compared to the monomethanesulfonate alone)	in vitro permeability through rabbit colon (in words) ([2]; compared to the monomethanesulfonate salt)	in vitro dissolution profile (in words) [3]	in vitro dissolution profile (in words) ([3]; listed as arginine charge-neutralization-complex)	Percent of Eprosartan dissolved from the granules ([3]; time 0 min, pH gradient)	Percent of Eprosartan dissolved from the granules ([3]; time 45 min (pH 1.2 SGF step))	Percent of Eprosartan dissolved from the granules ([3]; time 90 min (pH 3.0 step))	Percent of Eprosartan dissolved from the granules ([3]; time 120 min (pH 4.0 step))	Percent of Eprosartan dissolved from the granules ([3]; time 150 min (pH 5.0 step))	Percent of Eprosartan dissolved from the granules ([3]; time 180 min (pH 6.0 step))	Percent of Eprosartan dissolved from the granules ([3]; time 225 min (pH 7.5 step))	SMILES	bioavailability (in words) ([1]; human)	mean absolute bioavailability ([1]; human)	time to maximum concentration ([1]; human, fed state)	safety and tolerability in human clinical studies ([1]; up to doses of 800 mg per day)
50%	–	–	–	–	–	–	–	–	–	–	CCCCc1ncc(/C=C(\Cc2cccs2)C(=O)O)n1Cc1ccc(C(=O)O)cc1 [(E)-α-[2-n-Butyl-1-[(4-carboxyphenyl)methyl]-1H-imidazol-5-yl]methylene-2-thiophenepropionic acid monomethanesulfonate]	low and variable bioavailability	approximately 13%	2.5 to 4 h	safe and well tolerated
–	increased in vitro permeability	improved in vitro dissolution profile	better dissolution profile	0.00%	32.81%	35.82%	36.24%	37.44%	46.70%	100.63%	CCCCc1ncc(/C=C(\Cc2cccs2)C(=O)O)n1Cc1ccc(C(=O)O)cc1.N=C(N)NCCC[C@H](N)C(=O)O [Arginyl charge-neutralization-complex, (E)-α-[2-n-butyl-1-[(4-carboxyphenyl)methyl]-1H-imidazol-5-yl]methylene-2-thiophenepropionic acid arginyl charge-neutralization-complex]	–	–	–	–
